Counter-ions that a name gives are not always drawn. Like-named read-outs stand apart in the source and are kept apart here.
How the values were obtained:
[1] = target: T1, cyclooxygenase-1 (human U-937 cells) (Homo sapiens, UniProt P23219); assay: Inhibition of cyclooxygenase-1: PGE2 production in human U-937 cells, whole cell assay; assay type: cell-based; settings: PGE2 synthesis in response to arachidonic acid, read-out: Cox-1 IC50
T1 construct: human U-937 cells (which specifically express cyclooxygenase-1); endogenous in cells; host or cells: human U-937 cells

rat paw edema = assay: Rat Paw Edema Assay (carrageenan), edema inhibition; assay type: in vivo, Male Sprague-Dawley rats; settings: po 1 hr before carrageenan, paw volume at 3 hr
Experimental: Rat Paw Edema Assay-Protocol
Male Sprague-Dawley rats (150-200 g) are fasted overnight and are given po either vehicle (1% methocel or 5% Tween 80) or a test compound. One hr later, a line is drawn using a permanent marker at the level above the ankle in one hind paw to define the area of the paw to be monitored. The paw volume (V0) is measured using a plethysmometer (Ugo-Basile, Italy) based on the principle of water displacement. The animals are then injected subplantarly with […] of 1% carrageenan solution in saline (FMC Corp, Maine) into the paw using an insulin syringe with a 25-gauge needle (i.e., […] carrageenan per paw). Three hr later, the paw volume (V3) is measured and the increases in paw volume (V3 -V0) are calculated. The animals are sacrificed by CO2 asphyxiation and the absence or presence of stomach lesions scored. Data is compared with the vehicle-control values and percent inhibition calculated. All treatment groups are coded to eliminate observer bias.

[2] = target: T2, cyclooxygenase-2 (human osteosarcoma 143 cells) (Homo sapiens, UniProt P35354); assay: Inhibition of cyclooxygenase-2: PGE2 production in human osteosarcoma 143 cells, whole cell assay; assay type: cell-based
T2 construct: human osteosarcoma 143 cells (which specifically express cyclooxygenase-2); endogenous in cells; host or cells: human osteosarcoma 143 cells
T2 sequence (P35354 18-604): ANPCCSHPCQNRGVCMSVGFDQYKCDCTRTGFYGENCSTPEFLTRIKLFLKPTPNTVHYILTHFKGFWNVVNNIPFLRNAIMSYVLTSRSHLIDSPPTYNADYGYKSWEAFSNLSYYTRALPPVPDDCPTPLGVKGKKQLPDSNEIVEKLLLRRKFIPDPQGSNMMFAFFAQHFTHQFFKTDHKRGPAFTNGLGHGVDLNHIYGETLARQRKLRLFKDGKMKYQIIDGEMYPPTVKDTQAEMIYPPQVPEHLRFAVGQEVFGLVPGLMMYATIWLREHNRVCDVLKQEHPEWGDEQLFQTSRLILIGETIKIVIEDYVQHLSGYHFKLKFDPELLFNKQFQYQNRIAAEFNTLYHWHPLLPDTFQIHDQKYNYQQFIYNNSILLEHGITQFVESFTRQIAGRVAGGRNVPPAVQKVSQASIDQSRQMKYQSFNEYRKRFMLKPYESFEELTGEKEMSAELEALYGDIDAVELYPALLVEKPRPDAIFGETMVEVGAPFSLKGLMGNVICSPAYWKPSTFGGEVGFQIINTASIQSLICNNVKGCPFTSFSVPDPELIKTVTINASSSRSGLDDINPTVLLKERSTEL

[3] = human osteosarcoma 143 cells, whole cell, PGE2 synthesis in response to arachidonic acid, read-out: Cox-2 IC50

T1 sequence (P23219 24-599): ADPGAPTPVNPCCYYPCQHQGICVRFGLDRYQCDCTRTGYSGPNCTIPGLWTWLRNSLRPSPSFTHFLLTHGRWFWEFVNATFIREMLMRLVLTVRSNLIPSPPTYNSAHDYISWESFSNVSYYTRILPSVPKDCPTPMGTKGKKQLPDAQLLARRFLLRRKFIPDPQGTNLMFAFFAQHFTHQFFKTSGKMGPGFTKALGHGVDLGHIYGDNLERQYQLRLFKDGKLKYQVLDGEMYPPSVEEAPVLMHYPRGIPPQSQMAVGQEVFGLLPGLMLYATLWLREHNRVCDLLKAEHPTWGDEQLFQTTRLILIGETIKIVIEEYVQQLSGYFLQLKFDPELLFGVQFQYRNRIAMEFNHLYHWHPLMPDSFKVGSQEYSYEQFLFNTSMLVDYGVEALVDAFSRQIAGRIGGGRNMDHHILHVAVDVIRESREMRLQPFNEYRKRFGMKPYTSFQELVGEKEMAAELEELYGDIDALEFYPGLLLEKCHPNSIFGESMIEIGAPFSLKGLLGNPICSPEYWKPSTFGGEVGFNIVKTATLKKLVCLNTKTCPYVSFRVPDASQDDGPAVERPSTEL

Row | IC50 [1] [nM] | IC50 [2, 3] [nM] | IC50 [2] [nM] | Structure (SMILES) | ED30 (rat paw edema) [mg/kg]
1 | > 10000 |  |  | COc1ccc2c(c1)c(C[C@@H](C)CC(=O)O)c(C)n2Cc1ccc(Br)cc1 [Example 8, (3R) 4-(1-(4-Bromobenzyl)-5-methoxy-2-methyl-1H-indol-3-yl)-3-methylbutanoic ac id] | 0.6
2 | > 25000 | 9 |  | COc1ccc2c(c1)c(CC1(CC(=O)O)CC1)c(C)n2Cc1ccc(Cl)cc1 [Example 25, 4-[1-(4-Chlorobenzyl)-5-methoxy-2-methyl-1H-indol-3-yl]-3-(ethane-1,2-diyl)butanoic acid] | > 3
3 | > 100000 |  | 16 | COc1ccc2c(c1)c(CC1(CC(=O)O)CC1)c(C)n2Cc1ccc(Br)cc1 [Example 2, [4-(1-(4-Bromobenzyl) -5-methoxy-2-methyl-1 H-indol-3-yl) -3-(ethane-1,2-diyl)]butanoic acid, sodium salt] | 0.54
4 |  |  |  | COc1ccc2c(c1)c(C(C)C(=O)O)c(C)n2Cc1ccc(Cl)cc1 (stereo not shown) [MK-555, a-(1-p-chlorobenzyl-2-methyl-5-methoxy-3-indolyl)propionic acid, reference compound] | 3
5 | > 10000 | 5 |  | Cc1c(CC(C)CC(=O)O)c2cc(Cl)ccc2n1Cc1ccc(Br)cc1 (racemic) [Example 34, 4-[1-(4-Bromobenzyl)-5-chloro-2-methyl-1 H-indol-3-yl]-3-methyl-butanoic acid] | 0.51
6 |  |  |  | COc1ccc2c(c1)c(CC(=O)O)c(C)n2C(=O)c1ccc(Cl)cc1 [Indomethacin, reference compound] | 0.9
7 | > 10000 | 6 |  | COc1ccc2c(c1)c(CCCC(=O)O)c(C)n2Cc1ccc(Br)cc1 [Example 4, 4-(1-(4-Bromobenzyl)-5-methoxy-2-methyl-1H-indol-3-yl)butanoic acid] | 1.2
8 | > 50000 | 6 |  | Cc1c(CCCC(=O)O)c2cc(Br)ccc2n1Cc1ccc(Br)cc1 [Example 24, 4-[5-Bromo-1-(4-bromobenzyl)-2-methyl-1H-indol-3-yl]butanoic acid] | ~3

From patent publication US5639780A, “N-benzyl indol-3-yl butanoic acid derivatives as cyclooxygenase inhibitors” (priority 1995, dated 1997)
